Earlier results, collected in article PMC10576142, “Intrinsic structural dynamics dictate enzymatic activity and inhibition” (Proceedings of the National Academy of Sciences of the …, 2023).

Test system: HDAC8
Design: method as in PMID 24079912

For `CC(/C=C/C(=O)NO)=C\[C@@H](C)C(=O)c1ccc(N(C)C)cc1` [TCSA, trichostatin A], the overall off-rate is given as 0.1 s⁻¹.
